The record followed here is ChEMBL document CHEMBL5696442, “Discovery of type II inhibitors of TGFβ-activated kinase 1 (TAK1) and mitogen-activated protein kinase kinase kinase kinase 2 (MAP4K2)” (J Med Chem, 2015).

Assay [1] deals with T1, Serine/threonine-protein kinase Nek1 (Homo sapiens) (UniProt Q96PY6).
T1 sequence (whole entry): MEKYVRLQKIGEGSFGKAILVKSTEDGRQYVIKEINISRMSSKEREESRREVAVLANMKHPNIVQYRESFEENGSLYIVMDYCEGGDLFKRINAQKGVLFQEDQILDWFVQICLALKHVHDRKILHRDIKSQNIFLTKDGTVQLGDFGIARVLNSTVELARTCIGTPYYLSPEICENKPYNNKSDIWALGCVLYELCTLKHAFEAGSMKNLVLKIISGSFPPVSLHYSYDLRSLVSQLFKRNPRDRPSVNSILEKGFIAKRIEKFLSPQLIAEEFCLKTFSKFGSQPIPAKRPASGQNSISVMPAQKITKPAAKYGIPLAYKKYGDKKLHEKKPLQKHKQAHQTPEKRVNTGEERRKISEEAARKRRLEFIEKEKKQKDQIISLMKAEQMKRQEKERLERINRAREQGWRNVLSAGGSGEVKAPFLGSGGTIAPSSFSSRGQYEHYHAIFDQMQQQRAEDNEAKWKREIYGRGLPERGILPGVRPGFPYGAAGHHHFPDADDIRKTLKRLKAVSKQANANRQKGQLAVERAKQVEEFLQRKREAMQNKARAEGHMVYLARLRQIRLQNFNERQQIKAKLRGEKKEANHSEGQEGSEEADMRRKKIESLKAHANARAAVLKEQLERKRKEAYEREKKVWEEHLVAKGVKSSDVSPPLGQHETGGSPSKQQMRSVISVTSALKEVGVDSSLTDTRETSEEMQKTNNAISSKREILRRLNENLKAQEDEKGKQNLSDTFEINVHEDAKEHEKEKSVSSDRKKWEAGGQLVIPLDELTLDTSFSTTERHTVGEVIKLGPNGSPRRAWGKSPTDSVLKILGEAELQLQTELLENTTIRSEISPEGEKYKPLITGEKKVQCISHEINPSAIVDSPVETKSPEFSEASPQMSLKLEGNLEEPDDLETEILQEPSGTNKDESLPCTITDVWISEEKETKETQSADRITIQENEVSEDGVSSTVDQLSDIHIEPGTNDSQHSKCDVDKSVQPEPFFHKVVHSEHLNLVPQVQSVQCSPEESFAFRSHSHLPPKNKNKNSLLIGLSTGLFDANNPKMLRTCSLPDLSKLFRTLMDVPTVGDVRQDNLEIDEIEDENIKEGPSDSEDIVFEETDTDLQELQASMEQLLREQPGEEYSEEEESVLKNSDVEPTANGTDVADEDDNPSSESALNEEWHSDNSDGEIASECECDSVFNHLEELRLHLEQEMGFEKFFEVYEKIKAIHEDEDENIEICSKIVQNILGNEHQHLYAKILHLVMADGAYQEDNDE
In words: Inhibition of NEK1 Lys2 labeling site in human Huh-7 cell lysate at 1 uM by KiNativ Profiling analysis relative to control. The assay is classed as subcellular.

The target in assay [2] is Cyclin-dependent kinase 3 (Homo sapiens) (UniProt Q00526). In words: Inhibition of CDK3 (unknown origin) at 1 uM by Ambit Kinomescan binding assay relative to control; values are per cent of control.
Sequence of Cyclin-dependent kinase 3 (Homo sapiens) (Q00526 whole entry, looked up): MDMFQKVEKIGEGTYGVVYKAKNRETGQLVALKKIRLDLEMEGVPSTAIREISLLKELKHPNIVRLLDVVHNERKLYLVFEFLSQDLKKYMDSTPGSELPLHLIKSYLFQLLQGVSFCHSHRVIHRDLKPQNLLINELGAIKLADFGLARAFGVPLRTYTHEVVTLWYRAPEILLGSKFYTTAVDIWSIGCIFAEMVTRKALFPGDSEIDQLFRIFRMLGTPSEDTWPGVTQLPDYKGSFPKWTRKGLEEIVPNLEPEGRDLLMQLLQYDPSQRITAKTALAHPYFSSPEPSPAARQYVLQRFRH
The target in assay [3] is T2, Serine/threonine-protein kinase ULK1 (Homo sapiens) (UniProt O75385).
T2 sequence (whole entry): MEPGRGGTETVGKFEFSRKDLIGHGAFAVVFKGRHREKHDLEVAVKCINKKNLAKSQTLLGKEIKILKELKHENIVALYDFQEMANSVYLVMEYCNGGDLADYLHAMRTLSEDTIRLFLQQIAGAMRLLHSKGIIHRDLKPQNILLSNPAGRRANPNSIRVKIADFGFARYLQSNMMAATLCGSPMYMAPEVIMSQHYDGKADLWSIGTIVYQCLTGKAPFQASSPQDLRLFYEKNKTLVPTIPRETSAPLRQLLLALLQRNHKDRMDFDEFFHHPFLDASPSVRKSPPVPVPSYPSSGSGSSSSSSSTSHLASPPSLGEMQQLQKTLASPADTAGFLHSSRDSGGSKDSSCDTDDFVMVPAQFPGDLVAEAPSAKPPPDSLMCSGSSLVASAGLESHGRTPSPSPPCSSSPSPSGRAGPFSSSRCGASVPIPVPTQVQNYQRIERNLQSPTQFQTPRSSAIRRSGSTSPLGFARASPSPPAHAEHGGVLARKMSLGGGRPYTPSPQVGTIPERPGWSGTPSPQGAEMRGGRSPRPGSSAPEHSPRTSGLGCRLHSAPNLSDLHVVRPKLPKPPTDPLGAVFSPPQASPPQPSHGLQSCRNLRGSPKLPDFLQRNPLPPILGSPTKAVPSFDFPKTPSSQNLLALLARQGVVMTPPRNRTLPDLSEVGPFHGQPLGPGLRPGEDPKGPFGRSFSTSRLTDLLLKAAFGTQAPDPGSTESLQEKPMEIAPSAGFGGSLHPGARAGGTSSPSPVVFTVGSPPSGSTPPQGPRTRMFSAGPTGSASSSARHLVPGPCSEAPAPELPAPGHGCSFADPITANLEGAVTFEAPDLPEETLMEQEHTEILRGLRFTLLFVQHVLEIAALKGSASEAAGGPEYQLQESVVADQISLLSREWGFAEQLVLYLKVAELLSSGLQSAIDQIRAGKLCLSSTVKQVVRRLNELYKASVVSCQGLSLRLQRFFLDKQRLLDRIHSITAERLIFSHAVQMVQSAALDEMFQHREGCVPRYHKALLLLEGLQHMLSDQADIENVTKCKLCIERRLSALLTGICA
Description: Inhibition of ULK1 Lys2 labeling site in human A-375 cells at 0.05 uM by KiNativ Profiling analysis relative to control. Type of assay: cell-based.

Assay [4] deals with T3, Mitogen-activated protein kinase 14 (Homo sapiens, UniProt Q16539). In words: Inhibition of p38alpha K2 labeling site in human Huh-7 cells at 10 uM by KiNativ Profiling analysis relative to control. The assay is classed as cell-based.
T3 sequence (Q16539 whole entry): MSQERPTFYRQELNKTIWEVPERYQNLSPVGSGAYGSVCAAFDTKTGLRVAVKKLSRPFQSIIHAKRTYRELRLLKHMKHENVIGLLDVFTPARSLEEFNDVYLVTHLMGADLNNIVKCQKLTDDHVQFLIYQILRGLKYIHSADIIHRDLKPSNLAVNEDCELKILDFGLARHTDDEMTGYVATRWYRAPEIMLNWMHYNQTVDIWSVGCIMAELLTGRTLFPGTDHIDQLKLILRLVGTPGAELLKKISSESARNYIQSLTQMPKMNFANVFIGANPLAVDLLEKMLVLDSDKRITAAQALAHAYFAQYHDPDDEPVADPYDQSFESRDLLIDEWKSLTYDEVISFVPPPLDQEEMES
For assay [5], the target named is T4, Dual specificity mitogen-activated protein kinase kinase 6 (Homo sapiens) (UniProt P52564).
T4 sequence (whole entry): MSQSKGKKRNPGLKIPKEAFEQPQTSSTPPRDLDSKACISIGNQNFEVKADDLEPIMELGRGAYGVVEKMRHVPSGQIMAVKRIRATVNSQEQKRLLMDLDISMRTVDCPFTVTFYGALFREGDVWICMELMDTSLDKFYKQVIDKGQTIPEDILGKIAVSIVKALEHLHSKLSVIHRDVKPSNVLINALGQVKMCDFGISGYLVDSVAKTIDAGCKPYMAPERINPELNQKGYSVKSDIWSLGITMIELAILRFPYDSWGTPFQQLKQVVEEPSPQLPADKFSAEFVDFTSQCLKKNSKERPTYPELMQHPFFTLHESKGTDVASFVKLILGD
Description: Inhibition of MAP2K6 ACT labeling site in human Huh-7 cells at 10 uM by KiNativ Profiling analysis relative to control. The assay is classed as cell-based.

Assay [6] concerns the target T3, Mitogen-activated protein kinase 14. Description: Inhibition of p38alpha K2 labeling site in human Huh-7 cells at 1 uM by KiNativ Profiling analysis relative to control. Type of assay: cell-based.

For `CNc1cc(Oc2cc(C(=O)Nc3cc(N4CCN(C)CC4)cc(C(F)(F)F)c3)ccc2C)ncn1`, the inhibition in assay [1] is -1.1%.

Compound `CCN1CCN(Cc2ccc(NC(=O)c3ccc(C)c(/C=C/c4cnc5[nH]ccc5c4OC)c3)cc2C(F)(F)F)CC1` gave a % of control in assay [2] of 100%.

On to `CCN1CCN(Cc2ccc(NC(=O)c3ccc(C)c(Oc4ccnc5[nH]ccc45)c3)cc2C(F)(F)F)CC1`, for which the inhibition in assay [3] was determined as 4.8%; in assay [4], 6.8%; in assay [5], 15.4%; in assay [6], 7.1%.
